# According to patent US20220323383A1, “SMALL-MOLECULAR ADJUVANTS AND IMPLEMENTATIONS THEREOF” (JAWAHARLAL NEHRU CENTRE FOR ADVANCED SCIENTIFIC RESEARCH, priority 2019, published 2022):
# What was measured:
# Type in all cases: cell-based
# A. baumannii R674 [1] = assay: Chequerboard combination efficacy of adjuvant with antibiotics
# Protocol: (§1) All the solvents were of reagent grade, which were distilled and dried before its use. All the reagents were purchased from Sigma-Aldrich, Alfa-Aesar, S.D. Fine, Avra and Spectrochem, and were used without further purification. Analytical thin layer chromatography (TLC) was performed on E. Merck TLC plates pre-coated with silica gel 60 F254 and visualization was carried out using UV light and Iodine. Column chromatography was performed on silica gel (60-120 mesh) using different ratio of chloroform and methanol solvent system. Nuclear magnetic resonance spectra were recorded on Bruker (AV-400) 400 MHz spectrometer in deuterated solvents. Mass spectra were obtained using 6538-UHD Accurate mass Q-TOF LC-MS instrument. For optical density measurement during bacteriology experiments, Tecan Infinite Pro series M200 Microplate Reader was used. Bacterial strains, A. baumannii (R674), P. aeruginosa (R590), E. coli (R3336) and K. pneumoniae (R3934) were used for the studies.
# (§2) The combination efficacy with antibiotics from different classes and individual antibacterial activity of the synthesized adjuvants was evaluated against the above mentioned MDR and NDM-1 strains of Gram-negative bacteria. All the bacteria were grown in peptone. The bacterial samples were freeze dried and stored at −80° C. 3 μl of these stocks were added to 3 mL of peptone and the culture was grown for 6 h at 37° C. prior to the experiments.
# (§3) All synthesized compounds were assayed for their antibacterial activity in combination with antibiotics in a modified chequerboard micro-dilution broth format. Stock solutions were made by serially diluting the compounds using autoclaved millipore water. The bacterial freeze dried stock samples were stored at −80° C. About 3 μL of these stocks were added to about 3 mL of the respective broth and the culture was grown for about 6 h at about 37° C. with prior to the experiments. This 6 h grown culture gives about 10^8 cfu/mL in case of A. baumannii R674, P. aeruginosa R590, E. coli R3336 and K. pneumoniae R3934 which were determined by spread plating method. This 6 h grown culture was diluted to give effective cell concentration of 10^5 cfu/mL, and then used for the chequerboard assay. Adjuvants and antibiotics were serially diluted in two-fold, in sterile millipore water. 25 μL of these serial dilutions of the antibiotics and 25 μL of compounds were added to the wells of 96 well plate followed by the addition of about 150 μL of bacterial solution (˜10^5 cfu/mL). The plates were then incubated at about 37° C., 150 rpm in the incubator and O.D at 600 nm was recorded at 24 h using TECAN (Infinite series, M200 pro) Plate Reader. The wells with similar OD as the media control contained the required concentration of the antibiotic and adjuvant for antibacterial efficacy. The potentiation ability of the adjuvants was determined by calculating the potentiation factor and the Fractional Inhibitory concentration (FIC) index. Fractional Inhibitory Concentration (FIC) is expressed as, FIC=[X]/MICX, where [X] is the lowest inhibitory concentration of antibiotic in the presence of the adjuvant. Whereas FIC index is expressed as, FICI=FICantibiotic+FICadjuvant. The values of FIC index give an insight about the nature of the combination. Potentiation factor which means fold-reduction in the MIC of the antibiotic, when used in combination with the adjuvant was also determined. Potentiation factor=[Minimum inhibitory concentration (MIC) of antibiotic in absence of adjuvant]/[MIC of antibiotic in presence of adjuvant]. […] The combination efficacies of adjuvants with various antibiotics are furnished in Table 1. It should be noted that various other resistant strains of bacteria (Gram-positive and Gram-negative) can be tested with a number of other antibiotics to check the potentiation capacity of the adjuvants.
# P. aeruginosa R590 [2] = assay: as above; details: P. aeruginosa R590
# Protocol: as §1, §2, §3
# A. baumannii R674 [3] = assay: Individual antibacterial activity (MIC) of adjuvants; details: adjuvant alone; A. baumannii R674
# Protocol: as §2, §3
# P. aeruginosa R590 [4] = assay: as above; details: adjuvant alone; P. aeruginosa R590
# Protocol: as §2, §3
# human RBCs = assay: Haemolytic activity; details: concentration at which 50% of human blood cells are lysed; 1 h at 37° C.
# Protocol: Erythrocytes were isolated from freshly drawn, heparanized human blood and re-suspended to 5 vol % in PBS (pH 7.4). In a 96-well microtiter plate, 150 μl of erythrocyte suspension was added to 50 μl of serially diluted compound. Two controls were made, one without compound and other with 50 μl of 1 vol % solution of Triton X-100. The plate was incubated for 1 h at 37° C. The plate was then centrifuged at 3,500 rpm for 5 min, 100 μl of the supernatant from each well was transferred to a fresh 96-well microtiter plate, and A540 was measured. Percentage of hemolysis was determined as (A−A0)/(Atotal−A0)×100, where A is the absorbance of the test well, A0 the absorbance of the negative controls (without compound), and Atotal the absorbance of 100% hemolysis wells (with Triton X-100), all at 540 nm.
# Toxicity studies of the compounds were done on freshly drawn human RBCs. Toxicity of the compounds were defined by their HC50 values (Table 2), i.e. the concentration of compound at which 50% of the blood cells are lysed.
SMILES,FICI (A. baumannii R674 [1]; antibiotic Rifampicin),MIC of antibiotic in presence of adjuvant (A. baumannii R674 [1]; antibiotic Rifampicin) [µg/mL],Potentiation factor (A. baumannii R674 [1]; antibiotic Rifampicin),FICI (A. baumannii R674 [1]; antibiotic Tetracycline),MIC of antibiotic in presence of adjuvant (A. baumannii R674 [1]; antibiotic Tetracycline) [µg/mL],Potentiation factor (A. baumannii R674 [1]; antibiotic Tetracycline),FICI (P. aeruginosa R590 [2]; antibiotic Rifampicin),MIC of antibiotic in presence of adjuvant (P. aeruginosa R590 [2]; antibiotic Rifampicin) [µg/mL],FICI (P. aeruginosa R590 [2]; antibiotic Tetracycline),MIC of antibiotic in presence of adjuvant (P. aeruginosa R590 [2]; antibiotic Tetracycline) [µg/mL],Potentiation factor (P. aeruginosa R590 [2]; antibiotic Tetracycline),MIC against clinical isolates of bacteria (A. baumannii R674 [3]) [µg/mL],MIC against clinical isolates of bacteria (P. aeruginosa R590 [4]) [µg/mL],HC50 (human RBCs) [µg/mL],Potentiation factor (P. aeruginosa R590 [2]; antibiotic Rifampicin)
"NCCCCCCN(CCCCCCN)C(=O)CC(c1ccccc1)c1ccccc1.O=C(O)C(F)(F)F.O=C(O)C(F)(F)F [Compound 11, N,N-bis-[(6-amino)hexyl] 3,3-diphenyl propanamide bistrifluoroacetate]",0.1328,0.5,128,1,64,2,0.07,1,0.375,32,8,128,256,>1024,
"NCCCN(CCCN)C(=O)Cc1cccc2ccccc12.O=C(O)C(F)(F)F.O=C(O)C(F)(F)F [Compound 2, N,N-bis((3-amino)propyl)naphthyl ethanamide bis(trifluoroacetate)]",<0.375,8,8,<0.625,64,2,<0.375,16,<0.5,64,4,>512,>512,>1024,8
